Patent publication US12281102B2, “Inhibitors of APOL1 and methods of using same” (Vertex Pharmaceuticals Incorporated, priority 2020, dated 2025)

Biological target: T1, G1 APOL1 (Homo sapiens, UniProt O14791, I384M/S342G)
T1 construct: expressed in transfected cells
T1 sequence (O14791 28-398 S342G/I384M): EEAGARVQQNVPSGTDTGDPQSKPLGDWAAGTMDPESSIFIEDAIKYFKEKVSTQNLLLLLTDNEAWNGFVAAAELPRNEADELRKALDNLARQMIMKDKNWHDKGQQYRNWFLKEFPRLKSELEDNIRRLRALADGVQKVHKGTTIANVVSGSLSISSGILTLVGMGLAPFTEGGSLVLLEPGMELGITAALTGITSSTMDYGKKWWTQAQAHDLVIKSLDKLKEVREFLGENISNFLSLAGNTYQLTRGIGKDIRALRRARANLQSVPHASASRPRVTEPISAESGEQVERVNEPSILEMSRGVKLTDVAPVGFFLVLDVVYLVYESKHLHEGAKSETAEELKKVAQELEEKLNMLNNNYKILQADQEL
Experiment: Acute APOL1 Thallium Assay with inducible stable clones of HEK 293 cells
Assay type: cell-based
Conditions: HEK 293 T-Rex inducible stable clone expressing G1 APOL1; read-out: Thallium Assay (IC50)
In short: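 A tetracycline-inducible HEK293 T-Rex clone (G1 DC3.25) expressing G1 APOL1 was plated at 26,000 cells/well, with tetracycline added at plating to induce expression. Cells were loaded with an AM-ester thallium-sensitive dye and stimulated with Tl+. Pore activity was read as the FLIPR Tetra fluorescence increase from Tl+ influx.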

Row | SMILES | IC50
1 | Cc1nccn1CC(=O)N[C@H]1C[C@H](c2c(-c3ccc(F)cc3)[nH]c3c(F)cc(F)cc32)C1 [Compound 126] | > 1000 nM
2 | COCCC(=O)N[C@H]1C[C@H](c2c(-c3ccc(F)cc3)[nH]c3c(F)cc(F)cc32)C1 [Compound 125] | < 250 nM
3 | O=C(CC1(O)CCCCC1)N[C@H]1C[C@H](c2c(-c3ccc(F)cc3)[nH]c3c(F)cc(F)cc32)C1 [Compound 113] | > 1000 nM
4 | Cc1nc[nH]c1C(=O)NC1CC(Cc2c(-c3ccc(F)cc3)[nH]c3c(F)cc(F)cc23)C1 (stereo not drawn) [Compound 162] | 250 to 1000 nM
5 | CC(C)(O)C(=O)NC1CC(c2c(-c3ccc(F)cc3)[nH]c3c(F)cc(C(F)(F)F)cc23)C1 (mixture of isomers) [Compound 3, N-[3-[7-fluoro-2-(4-fluorophenyl)-5-(trifluoromethyl)-1H-indol-3-yl]cyclobutyl]-2-hydroxy-2-methyl-propanamide] | 250 to 1000 nM
6 | CCS(=O)(=O)N[C@H]1C[C@H](c2c(-c3ccc(F)cc3)[nH]c3c(F)cc(F)cc32)C1 [Compound 147] | < 250 nM
7 | CC(CC(=O)N[C@H]1C[C@@H](c2c(-c3ccc(F)cc3)[nH]c3c(F)cc(F)cc32)C1)N1CCOCC1 (mixture of isomers) [Compound 36] | > 1000 nM
8 | O=C(CCN1CCCC1=O)N[C@H]1C[C@H](c2c(-c3ccc(F)cc3)[nH]c3c(F)cc(F)cc32)C1 [Compound 114] | > 1000 nM
9 | O=C(CC1NC(=O)NC1=O)NC1CC(Cc2c(-c3ccc(F)cc3)[nH]c3c(F)cc(F)cc23)C1 (stereo not drawn) [Compound 168] | > 1000 nM
10 | CC[C@H](N)C(=O)NC[C@H]1C[C@H](c2c(-c3ccc(F)cc3)[nH]c3c(F)cc(F)cc32)C1 [Compound 197] | < 250 nM
11 | Cn1nccc1CC(=O)N[C@H]1C[C@@H](c2c(-c3ccc(F)cc3)[nH]c3c(F)cc(F)cc32)C1 [Compound 49] | > 1000 nM
12 | CC(=O)Nc1ccn(C2CC(c3c(-c4ccc(F)cc4)[nH]c4c(F)cc(F)cc34)C2)n1 (stereo not drawn) [Compound 19, N-[1-[3-[5,7-difluoro-2-(4-fluorophenyl)-1H-indol-3-yl]cyclobutyl]pyrazol-3-yl]acetamide] | > 1000 nM
13 | CN1CCCC(CC(=O)N[C@H]2C[C@@H](c3c(-c4ccc(F)cc4)[nH]c4c(F)cc(F)cc43)C2)C1 (stereo partly drawn) [Compound 39] | > 1000 nM
14 | O=C(CO)N[C@H]1C[C@H](c2c(-c3ccc(F)cc3)[nH]c3c(F)cc(F)cc32)C1 [Compound 136] | < 250 nM
15 | CN1CCC(CC(=O)N[C@H]2C[C@H](c3c(-c4ccc(F)cc4)[nH]c4c(F)cc(F)cc43)C2)C1 (stereo partly drawn) [Compound 110] | > 1000 nM
16 | CC(C)(C)OC(=O)NCC(=O)NC[C@H]1C[C@H](c2c(-c3ccc(F)cc3)[nH]c3c(F)cc(F)cc32)C1 [Compound 215] | 250 to 1000 nM

Row | SMILES | IC50
17 | Cn1ccc(CC(=O)N[C@H]2C[C@@H](c3c(-c4ccc(F)cc4)[nH]c4c(F)cc(F)cc43)C2)n1 [Compound 41] | > 1000 nM
18 | O=C1NCCC1C(=O)N[C@H]1C[C@@H](c2c(-c3ccc(F)cc3)[nH]c3c(F)cc(F)cc32)C1 (stereo partly drawn) [Compound 69] | > 1000 nM
19 | Cn1nccc1CC(=O)N[C@H]1C[C@H](c2c(-c3ccc(F)cc3)[nH]c3c(F)cc(F)cc32)C1 [Compound 115] | > 1000 nM
20 | COC1(CC(=O)N[C@H]2C[C@@H](c3c(-c4ccc(F)cc4)[nH]c4c(F)cc(F)cc43)C2)CCC1 [Compound 37] | > 1000 nM
21 | Cc1cc(-c2[nH]c3c(F)cc(F)cc3c2C2CC(N)C2)ccc1F (mixture of isomers) [Compound 11, 3-[5,7-difluoro-2-(4-fluoro-3-methyl-phenyl)-1H-indol-3-yl]cyclobutanamine] | 250 to 1000 nM
22 | Cn1cnc(CC(=O)N[C@H]2C[C@H](c3c(-c4ccc(F)cc4)[nH]c4c(F)cc(F)cc43)C2)c1 [Compound 143] | 250 to 1000 nM
23 | CC(=O)N[C@H](C)C(=O)NC[C@H]1C[C@H](c2c(-c3ccc(F)cc3)[nH]c3c(F)cc(F)cc32)C1 [Compound 204] | < 250 nM
24 | O=c1ccc2cc(S(=O)(=O)N[C@H]3C[C@H](c4c(-c5ccc(F)cc5)[nH]c5c(F)cc(F)cc54)C3)ccc2[nH]1 [Compound 155] | > 1000 nM
25 | O=C(CC1COC1)N[C@H]1C[C@H](c2c(-c3ccc(F)cc3)[nH]c3c(F)cc(F)cc32)C1 [Compound 138] | > 1000 nM
26 | CC1(C(=O)N[C@H]2C[C@H](c3c(-c4ccc(F)cc4)[nH]c4c(F)cc(F)cc43)C2)CC(=O)C1 [Compound 94] | 250 to 1000 nM
27 | O=C(NC[C@H]1C[C@H](c2c(-c3ccc(F)cc3)[nH]c3c(F)cc(F)cc32)C1)[C@@H]1CCCN1 [Compound 199] | < 250 nM
28 | O=C1NC(=O)C(CCS(=O)(=O)N[C@H]2C[C@H](c3c(-c4ccc(F)cc4)[nH]c4c(F)cc(F)cc43)C2)N1 (stereo partly drawn) [Compound 151] | 250 to 1000 nM
29 | C[C@H](O)C(=O)NC[C@H]1C[C@@H](c2c(-c3ccc(F)cc3)[nH]c3c(F)cc(F)cc32)C1 [Compound 213] | 250 to 1000 nM
30 | CS(=O)(=O)CCCC(=O)N[C@H]1C[C@@H](c2c(-c3ccc(F)cc3)[nH]c3c(F)cc(F)cc32)C1 [Compound 32] | > 1000 nM
31 | CN1CCC(CC(=O)N[C@H]2C[C@@H](c3c(-c4ccc(F)cc4)[nH]c4c(F)cc(F)cc43)C2)C1 (stereo partly drawn) [Compound 45] | > 1000 nM

More lines, now with the values ahead:

Row | IC50 | SMILES
32 | > 1000 nM | O=C(NC[C@H]1C[C@@H](c2c(-c3ccc(F)cc3)[nH]c3c(F)cc(F)cc32)C1)c1cnn[nH]1 [Compound 309]
33 | 250 to 1000 nM | O=C1CC(CNS(=O)(=O)NC[C@H]2C[C@H](c3c(-c4ccc(F)cc4)[nH]c4c(F)cc(F)cc43)C2)CN1 (stereo partly drawn) [Compound 368]
34 | > 1000 nM | O=S(=O)(NCCCn1ccnc1)NC[C@H]1C[C@H](c2c(-c3ccc(F)cc3)[nH]c3c(F)cc(F)cc32)C1 [Compound 366]
35 | > 1000 nM | O=C(NC[C@H]1C[C@H](c2c(-c3ccc(F)cc3)[nH]c3c(F)cc(F)cc32)C1)c1cn[nH]c1 [Compound 298]
36 | > 1000 nM | CC(=O)NC1CCC(c2c(-c3ccc(F)cc3)[nH]c3c(F)cc(F)cc23)CC1 (stereo not drawn) [Compound 435, N-(4-(5,7-difluoro-2-(4-fluorophenyl)-1H-indol-3-yl)cyclohexyl)acetamide]
37 | > 1000 nM | CC(C)(C)OC(=O)NC1(C(=O)NC[C@H]2C[C@H](c3c(-c4ccc(F)cc4)[nH]c4c(F)cc(F)cc43)C2)CCC1 [Compound 286]
38 | < 250 nM | Fc1ccc(-c2[nH]c3c(F)cc(F)cc3c2CC2CNC2)cc1 [Compound 436, 3-(azetidin-3-ylmethyl)-5,7-difluoro-2-(4-fluorophenyl)-1H-indole]
39 | > 1000 nM | O=C(CC1CS(=O)(=O)C1)NC[C@H]1C[C@H](c2c(-c3ccc(F)cc3)[nH]c3c(F)cc(F)cc32)C1 [Compound 261]
40 | > 1000 nM | CO[C@H](C)C(=O)NC[C@H]1C[C@H](c2c(-c3ccc(F)cc3)[nH]c3c(F)cc(F)cc32)C1 [Compound 240]
41 | 250 to 1000 nM | O=C1C[C@@H](C(=O)NC[C@H]2C[C@H](c3c(-c4ccc(F)cc4)[nH]c4c(F)cc(F)cc43)C2)N1 [Compound 218]
42 | > 1000 nM | O=C(NC[C@H]1C[C@H](c2c(-c3ccc(F)cc3)[nH]c3c(F)cc(F)cc32)C1)c1ccc[nH]1 [Compound 314]
43 | 250 to 1000 nM | OC1CC(NCC2CC(c3c(-c4ccc(F)cc4)[nH]c4c(F)cc(F)cc34)C2)C1 (stereo not drawn) [Compound 377]
44 | > 1000 nM | NC(=O)C1(NS(=O)(=O)NC[C@H]2C[C@H](c3c(-c4ccc(F)cc4)[nH]c4c(F)cc(F)cc43)C2)CC1 [Compound 349]
45 | > 1000 nM | CC1(C(=O)NC[C@H]2C[C@@H](c3c(-c4ccc(F)cc4)[nH]c4c(F)cc(F)cc43)C2)CCC(=O)NC1 (mixture of isomers) [Compound 306]
46 | > 1000 nM | O=C1CCCN1CCCNS(=O)(=O)NC[C@H]1C[C@H](c2c(-c3ccc(F)cc3)[nH]c3c(F)cc(F)cc32)C1 [Compound 335]
47 | 250 to 1000 nM | NC(=O)CC(=O)N[C@H]1C[C@H](c2c(-c3ccc(F)cc3)[nH]c3c(F)cc(F)cc32)C1 [Compound 447, N′-[3-[5,7-difluoro-2-(4-fluorophenyl)-1H-indol-3-yl]cyclobutyl]propanediamide]
48 | > 1000 nM | OCCCNCC1CC(c2c(-c3ccc(F)cc3)[nH]c3c(F)cc(F)cc23)C1 (stereo not drawn) [Compound 393]
49 | 250 to 1000 nM | O=S(=O)(NC[C@H]1C[C@H](c2c(-c3ccc(F)cc3)[nH]c3c(F)cc(F)cc32)C1)c1c[nH]cn1 [Compound 415]
50 | > 1000 nM | O=C(NC[C@H]1C[C@H](c2c(-c3ccc(F)cc3)[nH]c3c(F)cc(F)cc32)C1)[C@H]1CCN1 [Compound 245]
51 | > 1000 nM | NC(=O)[C@H](CO)NS(=O)(=O)NC[C@H]1C[C@H](c2c(-c3ccc(F)cc3)[nH]c3c(F)cc(F)cc32)C1 [Compound 353]
52 | > 1000 nM | O=c1ccc2cc(S(=O)(=O)NC[C@H]3C[C@H](c4c(-c5ccc(F)cc5)[nH]c5c(F)cc(F)cc54)C3)ccc2[nH]1 [Compound 417]
53 | > 1000 nM | O=S(=O)(NC[C@H]1C[C@H](c2c(-c3ccc(F)cc3)[nH]c3c(F)cc(F)cc32)C1)N[C@@H]1CCC[C@@H]1O [Compound 357]
54 | > 1000 nM | Fc1ccc(-c2[nH]c3c(F)cc(F)cc3c2C2CC(CN[C@@H]3CCOC3)C2)cc1 (stereo partly drawn) [Compound 391]
55 | > 1000 nM | O=C(CCN1CCCC1)NC[C@H]1C[C@@H](c2c(-c3ccc(F)cc3)[nH]c3c(F)cc(F)cc32)C1 [Compound 296]
56 | < 250 nM | NS(=O)(=O)NC[C@H]1C[C@H](c2c(-c3ccc(F)cc3)[nH]c3c(F)cc(F)cc32)C1 [Compound 372]
57 | < 250 nM | O=C(CCO)N1CC(Cc2c(-c3ccc(F)cc3)[nH]c3c(F)cc(F)cc23)C1 [Compound 439]
